Where no end group is shown, it is not given here.
Key:
[1] = system: release of GH by the pituitary; assay: relative in vivo potency of GRF analogs (Table I); conditions: expected from the relative in vivo potency at a dose of 0.01 nmol/kg; ED50 not determined
plasma DPP-IV = assay type: in vitro ADME, bovine
Experimental: Evidence of the improved metabolic stability of the compounds of this invention (when compared to native GRF) is illustrated in Table I by the in vitro stability data provided. It is noteworthy that in bovine plasma in vitro, the analogs having […], Val², Ile² or Leu² were not cleaved after residue 2 by plasma DPP-IV under the experimental conditions used in the study (one hour plasma incubation).

| DPP-IV related cleavage (plasma DPP-IV) | Substance | potency relative to its isomer Leu2 Ala15 Leu27 bGRF(1-29)NH2, trifluoroacetate salt, when the ED50 of each is determined and compared [1] |
| --- | --- | --- |
|  | Ile² Ala¹⁵ Leu²⁷ bGRF(1-29)NH₂, trifluoroacetate salt [Cpd. No. 3] | 10-20 times |
| slight DPP-IV related cleavage | YTDAIFTNSYRKVLAQLSARKLLQDILNR-NH2 [Cpd. No. 1, Thr² Ala¹⁵ Leu²⁷ bGRF(1-29)NH₂, trifluoroacetate salt] |  |

Reference: patent publication EP0477217B1, “STABILIZED, POTENT GRF ANALOGS” (THE UPJOHN COMPANY, priority 1989, dated 1994)
